≈ marks a conversion by molar mass, not a printed value. Where two headings read alike, the source gives them in different places.
Experiment: comparative solubility study, saturated solutions at 25° C., assayed by liquid chromatography
Type: physicochemical
Description: The media studied are water, ethanol and a water/polyethylene glycol 400 mixture (70/30 v/v).
The solubility measurements were made at 25° C. after stirring of the saturated solutions for 3 or 5 hours.
After achieving conditions under which the products solubilized in water are not adsorbed on certain filters, the solutions are filtered and then assayed by liquid chromatography (column μmBondapak C18, eluent acetonitrile/trifluoroacetic acid, detection at 254 nm, flow rate 1 ml/minute).

[1] = organic solvent or mixture, ethanol, stirring of saturated solution for 3 or 5 hours, read-out: solubility in ethanol
[2] = water, stirring of saturated solution for 3 or 5 hours, read-out: solubility in water
[3] = water/peg 400 70/30, organic solvent or mixture, water/polyethylene glycol 400 mixture (70/30 v/v), stirring for 3 or 5 hours, read-out: solubility in water/PEG

COc1cccc(OC)c1-c1cc(C(=O)NC2(C(=O)O)C3CC4CC(C3)CC2C4)nn1-c1cc[n+]([O-])c2cc(Cl)ccc12 (stereo not drawn) [EXAMPLE 2, 2-{[1-(1-oxido-7-chloroquinolin-4-yl)-5-(2,6-dimethoxyphenyl)-pyrazol-3-yl]carbonylamino}adamantane-2-carboxylic acid]
solubility [1]: 10300 µg/mL (≈ 17100 µM)
solubility [2]: 1.7 µg/mL (≈ 2.82 µM)
solubility [3]: 30 µg/mL (≈ 49.7 µM)

COc1cccc(OC)c1-c1cc(C(=O)NC2(C(=O)O)C3CC4CC(C3)CC2C4)nn1-c1ccnc2cc(Cl)ccc12 (stereo not drawn) [SR48692, 2-{[1-(7-Chloroquinolin-4-yl)-5-(2,6-dimethoxyphenyl)pyrazol-3-yl]carbonylamino}adamantane-2-carboxylic acid]
solubility [1]: 1300 µg/mL (≈ 2210 µM)
solubility [2]: 0.4 µg/mL (≈ 0.681 µM)
solubility [3]: < 1 µg/mL

Source: patent US5561234A, “1-(7-chloroquinolin-4-yl)pyrazole-3-carboxamide N-oxide derivatives, method of preparing them, and their pharmaceutical compositions” (Sanofi, priority 1994, dated 1996)
